In general, IC50 refers to the point on the concentration scale where inhibition reaches its midpoint. Low readings indicate inhibition by little substance, high ones a need for much substance.

Counter-ions that a name gives are not always drawn.

The target of the test is T1, Leukotriene D4 receptor (Cavia porcellus, UniProt Q2NNR5).
T1 construct: The trachea and lung were removed; from tissue; host or cells: guinea pig (male Hartley) trachea and lung, crude membrane fraction
T1 sequence (Q2NNR5 1-340): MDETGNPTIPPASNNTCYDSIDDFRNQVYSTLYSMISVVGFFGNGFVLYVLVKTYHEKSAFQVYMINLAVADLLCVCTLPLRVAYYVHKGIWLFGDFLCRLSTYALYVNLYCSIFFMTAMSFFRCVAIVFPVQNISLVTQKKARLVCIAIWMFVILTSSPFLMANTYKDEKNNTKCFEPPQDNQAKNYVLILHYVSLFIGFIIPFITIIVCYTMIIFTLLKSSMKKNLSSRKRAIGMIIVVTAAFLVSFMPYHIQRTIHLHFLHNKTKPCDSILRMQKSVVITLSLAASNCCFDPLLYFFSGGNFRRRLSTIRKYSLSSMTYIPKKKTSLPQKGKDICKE
Kind of test: 3H-Leukotriene D4 receptor binding (guinea pig crude lung membrane). As to conditions: 3H-Leukotriene D4 (0.3 nM), pH 7.5, 25° C., 30 minutes. Here is the method: ^3 H-Leukotriene D4 receptor binding (i) Test Method (a) Crude lung membrane preparation Male Hartly strain guinea pigs were sacrificed by decapitation. The trachea and lung were removed and homogenized buffer (0.25M sucrose, 10 mM Tris-HCl pH 7.5, 0.1 mM EDTA) by using Polytoron (Kinematica). The homogenate was centrifuged (1000×g, 10 min) to remove tissue clumps and the supernatant was centrifuges (14000×g, 20 min) to yield pellets. The pellets were resuspended in buffer (5 mM Tris-HCl pH 7.5), homogenized with a teflon homogenizer and centrifuged (14000×g, 20 min) to yield pellets which were referred to as crude membrane fractions. The obtained pellets were stored at -70° C. until use. (b) ^3 H-Leukotriene D4 binding to preparation membrane Frozen crude membrane fractions were thawed and resuspended in Medium 1 (10 mM Tris-HCl pH 7.5, 10 mM CaCl2, 10 mM MgCl2, 5 mM cysteine, 5 mM glycine). In binding assays, ^3 H-Leukotriene D4 (0.3 nM) and drug were incubated with 100 μl of the membrane preparation in Medium 1 at 25° C. for 30 minutes in a final volume of 500 μl. Separation of receptor-bound from free ^3 H-Leukotriene D4 is achieved by immediate filtration through Whatman GF/B filters under vacuum and washed three times with 5 ml of ice-cold buffer (10 mM Tris-HCl pH 7.5). Non-specific binding was defined as binding in the presence of 1 μM Leukotriene D4. The radioactivity retained on rinsed filters was determined by a liquid-scintillation counter (Packerd TRI-CARB 4530).

With `CC(C)(C)c1csc(-c2cc3cc(OCc4cccc(-c5nnn[nH]5)c4)ccc3o2)n1` [13-2), 5-{3-[2-(4-tert-Butylthiazol-2-yl)benzofuran-5-yloxymethyl]phenyl}-1H-tetrazole], the IC50 is 17.8 nM. With `CC(C)(Cc1ccc2oc(-c3nc(C(C)(C)C)cs3)cc2c1)C(=O)Nc1nnn[nH]1` [19-2), 4-tert-Butyl-2-[5-{2-methyl-2-(1H-tetrazol-5-yl)carbamoylpropyl}benzofuran-2-yl]thiazole], the 50% inhibitory concentration (IC50) turned out to be 67.7 nM. For the molecule `CC(C)(C)c1csc(-c2cc3cc(OCc4ccccc4Cc4nnn[nH]4)ccc3o2)n1` [Example 12, 5-{2-(2-(4-tert-butylthiazol-2-yl)benzofuran-5-yloxymethyl]phenylmethyl}-1H-tetrazole], the IC50 turned out to be 38.2 nM. In turn, `Cc1ccccc1S(=O)(=O)NC(=O)c1ccccc1COc1ccc2oc(-c3nc(C(C)(C)C)cs3)cc2c1` [Example 18, 4-tert-butyl-2-{5-[2-(2-methylbenzenesulfonamidocarbonyl)phenylmethoxy]benzofuran-2-yl}thiazole] yielded an IC50 of 48.8 nM. The molecule `CC(C)(C)c1csc(-c2cc3cc(OCc4ccccc4CC(=O)O)ccc3o2)n1` [Example 51, 4-tert-butyl-2-[5-(2-carboxymethylphenylmethoxy)benzofuran-2-yl]thiazole hydrochloride] displayed an IC50 of 13.8 nM.
